In ChEMBL document CHEMBL1137228, “Benzoxepin-derived estrogen receptor modulators: a novel molecular scaffold for the estrogen receptor” (J Med Chem, 2004):

Assays:
Estrogen receptor [1] = molecular target: T1, Estrogen receptor (Homo sapiens, UniProt Q92731+P03372); assay: Inhibition of estrogen receptor positive human breast carcinoma (MCF-7) cell proliferation; assay type: functional
Estrogen receptor [2] = molecular target: T1, Estrogen receptor; assay: Binding affinity for estrogen receptor of human breast carcinoma (MCF-7) cell line
Estrogen receptor [3] = molecular target: T1, Estrogen receptor; assay: Binding affinity for estrogen receptor of human breast carcinoma (MCF-7) cell line; 828 +/- 106 […]

SMILES | IC50 (Estrogen receptor [1]) [µM] | Ki (Estrogen receptor [2]) [µM] | Ki (Estrogen receptor [3]) [µM]
CN(C)CCOc1ccc(C2=C(c3ccc(C#N)cc3)CCOc3ccccc32)cc1 | 74.3 |  | 
COc1ccc(C2=C(c3ccc(OCCN(C)C)cc3)c3ccccc3OCC2)cc1 | 11.1 |  | 
CN(C)CCOc1ccc(C2=C(c3cccc([N+](=O)[O-])c3)CCOc3ccccc32)cc1 | 64.6 |  | 
c1ccc(C2=C(c3ccc(OCCN4CCOCC4)cc3)c3ccccc3OCC2)cc1 | 7.6 |  | 
COc1ccccc1C1=C(c2ccc(OCCN(C)C)cc2)c2ccccc2OCC1 | 11.7 |  | 
c1ccc(C2=C(c3ccc(OCCN4CCCC4)cc3)c3ccccc3OCC2)cc1 | 6.1 |  | 
c1ccc(C2=C(c3ccc(OCCN4CCCCC4)cc3)c3ccccc3OCC2)cc1 | 10.6 |  | 
COc1cccc(C2=C(c3ccc(OCCN(C)C)cc3)c3ccccc3OCC2)c1 | 56.6 |  | 

The next lines start with the values.

IC50 (Estrogen receptor [1]) [µM] | Ki (Estrogen receptor [2]) [µM] | Ki (Estrogen receptor [3]) [µM] | SMILES
16.2 | 3.2 |  | CN(C)CCOc1ccc(C2=C(c3ccccc3)CCOc3ccccc32)cc1
15.7 |  | 0.828 | Cc1ccc(C2=C(c3ccc(OCCN(C)C)cc3)c3ccccc3OCC2)cc1
18.3 |  |  | CN(C)CCOc1ccc(C2=C(c3ccc(Cl)cc3)CCOc3ccccc32)cc1
14.2 |  |  | CCN(CC)CCOc1ccc(C2=C(c3ccccc3)CCOc3ccccc32)cc1
33.6 |  |  | Cc1cccc(C2=C(c3ccc(OCCN(C)C)cc3)c3ccccc3OCC2)c1
